The assay concerns the target c-fms (Homo sapiens, UniProt P07333). As to the kind of experiment: autophosphorylation, fluorescence polarization competition immunoassay for c-fms inhibition. It counts as biochemical. The note with it: read-out: c-fins IC50. The method, then:
The assay buffer used was 100 mM 4-(2-hydroxyethyl)piperazine 1-ethanesulfonic acid (HEPES), pH 7.5, 1 mM 1,4-dithio-DL-threitol (DTT), 0.01% (v/v) Tween-20. Compounds were diluted in assay buffer containing 4% dimethylsulfoxide (DMSO) just prior to the assay. […] The kinase reaction was initiated by adding 2 μL of 5 mM ATP (Sigma) in assay buffer. The final concentrations in the assay were 10 nM c-fms, 1 mM ATP, 5 mM MgCl2, 2% DMSO. Control reactions were ran in each plate: in positive and negative control wells, assay buffer (made 4% in DMSO) was substituted for the compound; in addition, positive control wells received 1.2 μL of 50 mM ethylenediaminetetraaceticacid (EDTA).
The plates were incubated at room temperature for 45 min. At the end of the incubation, the reaction was quenched with 1.2 μL of 50 mM EDTA (EDTA was not added to the positive control wells at this point; see above). Following a 5-min incubation, each well received 10 μL of a 1:1:3 mixture of anti-phosphotyrosine antibody, 10X, PTK green tracer, 10X (vortexed), FP dilution buffer, respectively (all from PanVera, cat. # P2837). The plate was covered, incubated for 30 min at room temperature and the fluorescence polarization was read on the Analyst. […] The reported IC50 values are averages of three independent measurements.

The mark [1] stands for this setting: 10 nM c-fms, 1 mM ATP, 5 mM MgCl2, 2% DMSO, 45 min at room temperature, averages of three independent measurements.

Molecules are shown by their SMILES. Counter-ions that a name gives are not always drawn. Like-named read-outs stand apart in the source and are kept apart here.

c-fms, sequence (P07333 20-972): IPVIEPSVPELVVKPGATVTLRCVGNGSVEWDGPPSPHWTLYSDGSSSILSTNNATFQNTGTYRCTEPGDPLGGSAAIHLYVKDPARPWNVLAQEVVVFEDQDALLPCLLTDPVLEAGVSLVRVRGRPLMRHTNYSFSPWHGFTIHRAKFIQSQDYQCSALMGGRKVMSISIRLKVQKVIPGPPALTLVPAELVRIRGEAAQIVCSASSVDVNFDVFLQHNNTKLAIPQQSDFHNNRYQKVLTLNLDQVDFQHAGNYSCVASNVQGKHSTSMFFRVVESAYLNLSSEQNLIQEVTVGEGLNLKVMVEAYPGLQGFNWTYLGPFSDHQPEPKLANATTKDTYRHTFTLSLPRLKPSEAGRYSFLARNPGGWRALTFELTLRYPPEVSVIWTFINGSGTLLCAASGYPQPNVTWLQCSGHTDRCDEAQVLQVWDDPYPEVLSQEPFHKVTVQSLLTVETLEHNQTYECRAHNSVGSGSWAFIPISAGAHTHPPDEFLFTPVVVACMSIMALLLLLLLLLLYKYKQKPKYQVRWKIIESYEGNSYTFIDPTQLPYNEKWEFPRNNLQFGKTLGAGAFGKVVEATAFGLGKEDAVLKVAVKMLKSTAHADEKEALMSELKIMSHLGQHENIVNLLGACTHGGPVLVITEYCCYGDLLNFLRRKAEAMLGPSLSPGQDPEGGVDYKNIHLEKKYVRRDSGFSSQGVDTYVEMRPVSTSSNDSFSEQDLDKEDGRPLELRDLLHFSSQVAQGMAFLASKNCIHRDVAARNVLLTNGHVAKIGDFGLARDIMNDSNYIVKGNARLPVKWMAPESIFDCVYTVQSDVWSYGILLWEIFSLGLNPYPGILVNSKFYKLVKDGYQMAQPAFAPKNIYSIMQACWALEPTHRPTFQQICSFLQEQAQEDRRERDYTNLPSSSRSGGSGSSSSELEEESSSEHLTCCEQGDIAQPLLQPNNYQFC

For orientation: IC50 means the concentration needed to halve the response being measured. `Cc1ccsc1-c1cc(N2CCN(C)CC2)ccc1NC(=O)c1ccc(C#N)o1` [Example 4, 5-Cyano-furan-2-carboxylic acid [4-(4-methyl-piperazin-1-yl)-2-(3-methyl-thiophen-2-yl)-phenyl]-amide]: the IC50 turned out to be 470 nM.

Regarding `Cc1cscc1-c1cc(N2CCN(C)CC2)ccc1NC(=O)c1ccc(C#N)o1` [Example 5, 5-Cyano-furan-2-carboxylic acid [4-(4-methyl-piperazin-1-yl)-2-(4-methyl-thiophen-3-yl)-phenyl]-amide], the half-maximal inhibitory concentration (IC50) under setting [1] was 950 nM.

On to `Cc1ccccc1-c1cc(N2CCN(C)CC2)ccc1NC(=O)c1ccc(C#N)o1` [Example 9, 5-Cyano-furan-2-carboxylic acid [2 ′-methyl-5-(4-methyl-piperazin-1-yl)-biphenyl-2-yl]-amide], for which the IC50 under setting [1] turned out to be 630 nM.

Take `CN1CCN(c2ccc(NC(=O)c3ccc(C#N)o3)c(-c3ccccc3F)c2)CC1` [Example 10, 5-Cyano-furan-2-carboxylic acid [2′-fluoro-5-(4-methyl-piperazin-1-yl)-biphenyl-2-yl]-amide]: under setting [1], the IC50 was 900 nM.

Take `CN1CCN(c2ccc(NC(=O)c3ccc(C#N)o3)c(C3=CCOCC3)c2)CC1` [Example 12]: the 50% inhibitory concentration (IC50) under setting [1] worked out at 60 nM.

For the compound `N#Cc1c[nH]c(C(=O)Nc2ccc(C3CCNCC3)cc2C2=CCCCC2)c1` [Example 13, 4-Cyano-1H-pyrrole-2-carboxylic acid (2-cyclohex-1-enyl-4-piperidin-4-yl-phenyl)-amide trifluoroacetic acid salt], the half-maximal inhibitory concentration (IC50) under setting [1] came out at 12 nM.

As for `CC(=O)N1CCC(c2ccc(NC(=O)c3cc(C#N)c[nH]3)c(C3=CCCCC3)c2)CC1` [Example 15, 4-Cyano-1H-pyrrole-2-carboxylic acid [4-(1-acetyl-piperidin-4-yl)-2-cyclohex-1-enyl-phenyl]-amide], the IC50 under setting [1] stood at 28 nM.

Consider `CC1CC=C(c2cc(C3CCN(Cc4ccccn4)CC3)ccc2NC(=O)c2nc(C#N)c[nH]2)CC1` (stereo not shown) [Example 22, 4-Cyano-1H-imidazole-2-carboxylic acid [2-(4-methyl-cyclohex-1-enyl)-4-(1-pyridin-2-ylmethyl-piperidin-4-yl)-phenyl]-amide trifluoroacetic acid salt], for which the IC50 under setting [1] turned out to be 1.4 nM.

With `Cn1ccnc1CN1CCC(c2ccc(NC(=O)c3nc(C#N)c[nH]3)c(C3=CCCC3)c2)CC1` [Example 23, 4-Cyano-1H-imidazole-2-carboxylic acid {2-cyclopent-1-enyl-4-[1-(1-methyl-1H-imidazol-2-ylmethyl)-piperidin-4-yl]-phenyl}-amide trifluoroacetic acid salt], under setting [1], the half-inhibitory concentration (IC50) turned out to be 6.6 nM.

With `N#Cc1c[nH]c(C(=O)Nc2ccc(C3CCS(=O)(=O)CC3)cc2C2=CCCCC2)n1` [Example 35, 4-Cyano-1H-imidazole-2-carboxylic acid [2-cyclohex-1-enyl-4-(1,1-dioxo-hexahydro-1λ^6-thiopyran-4-yl)-phenyl]-amide], under setting [1], the half-inhibitory concentration (IC50) came to 2.9 nM.

Consider `N#Cc1c[nH]c(C(=O)Nc2ccc(C3CCNCC3)cc2C2=CCS(=O)(=O)CC2)n1` [Example 36, 4-Cyano-1H-imidazole-2-carboxylic acid [2-(1,1-dioxo-1,2,3,6-tetrahydro-1λ^6-thiopyran-4-yl)-4-piperidin-4-yl-phenyl]-amide trifluoroacetic acid salt], for which, under setting [1], the IC50 was found to be 60 nM.

Take `CC(=O)N1CCC(c2ccc(NC(=O)c3nc(C#N)c[nH]3)c(C3=CCS(=O)(=O)CC3)c2)CC1` [Example 37, 4-Cyano-1H-imidazole-2-carboxylic acid [4-(1-acetyl-piperidin-4-yl)-2-(1,1-dioxo-1,2,3,6-tetrahydro-1λ^6-thiopyran-4-yl)-phenyl]-amide]: the 50% inhibitory concentration (IC50) under setting [1] came to 60 nM.

Consider `CNCC(=O)N1CCC(c2ccc(NC(=O)c3nc(C#N)c[nH]3)c(C3=CCCCC3)c2)CC1` [Example 38b, 4-Cyano-1H-imidazole-2-carboxylic acid {2-cyclohex-1-enyl-4-[1-(2-methylamino-acetyl)-piperidin-4-yl]-phenyl}-amide], for which the IC50 under setting [1] stood at 1.4 nM.

For the compound `O=C(Nc1ccc(C2CCNCC2)cc1C1=CCCCC1)c1nnc[nH]1` [Example 49, 4H-[1,2,4]-triazole-3-carboxylic acid (2-cyclohex-1-enyl-4-piperidin-4-yl-phenyl)-amide bis trifluoroacetic acid salt], under setting [1], the IC50 stood at 60 nM.

`O=C(Nc1ccc(C2CCNCC2)cc1C1=CCCCC1)c1nnc(Cl)[nH]1` [Example 50, 5-Chloro-4H-[1,2,4]-triazole-3-carboxylic acid (2-cyclohex-1-enyl-4-piperidin-4-yl-phenyl)-amide trifluoroacetic acid salt]: the concentration for half-maximal inhibition (IC50) under setting [1] came to 60 nM.

`C[C@@H]1CC(c2ccc(NC(=O)c3ncc(C#N)[nH]3)c(C3=CCCCC3)c2)C[C@H](C)N1` (stereo partly drawn) [Example 51a, 5-Cyano-1H-imidazole-2-carboxylic acid [2-cyclohex-1-enyl-4-(cis-2,6-dimethyl-piperidin-4-yl)-phenyl]-amide bis trifluoroacetic acid salt]: under setting [1], the IC50 is 0.2 nM.

On to `C[C@H]1CC(c2ccc(NC(=O)c3ncc(C#N)[nH]3)c(C3=CCCCC3)c2)C[C@H](C)N1` (stereo partly drawn) [Example 51b, 5-cyano-1H-imidazole-2-carboxylic acid [2-cyclohex-1-enyl-4-(trans-2,6-dimethyl-piperidin-4-yl)-phenyl]-amide bis trifluoroacetic acid salt], for which the IC50 under setting [1] turned out to be 0.4 nM.

Take `CON1CCC(c2ccc(NC(=O)c3ncc(C#N)[nH]3)c(C3=CCCCC3)c2)CC1` [Example 53, 5-Cyano-1H-imidazole-2-carboxylic acid [2-cyclohex-1-enyl-4-(1-methoxy-piperidin-4-yl)-phenyl]-amide trifluoroacetic acid salt]: the IC50 under setting [1] stood at 5.3 nM.

In the case of `CC1(C)CC=C(c2nc(C3CCNCC3)ccc2NC(=O)c2nc(C#N)c[nH]2)CC1` [Example 54, 4-Cyano-1H-imidazole-2-carboxylic acid [6-(4,4-dimethyl-cyclohex-1-enyl)-1′,2′,3′,4′,5′,6′-hexahydro-[2,4′]bipyridinyl-5-yl]-amide trifluoroacetic acid salt], under setting [1], the IC50 was found to be 0.8 nM.

Turning to `CN(C)CC(=O)N1CCC(c2ccc(NC(=O)c3nc(C#N)c[nH]3)c(C3=CCC(C)(C)CC3)n2)CC1` [Example 55, 4-Cyano-1H-imidazole-2-carboxylic acid [1′-(2-dimethylamino-acetyl)-6-(4,4-dimethyl-cyclohex-1-enyl)-1′,2′,3′,4′,5′,6′-hexahydro-[2,4′]bipyridinyl-5-yl]-amide trifluoroacetic acid salt], the half-inhibitory concentration (IC50) under setting [1] amounted to 0.7 nM.

Take `CC1(C)CC=C(c2nc(C3CCN(CCS(C)(=O)=O)CC3)ccc2NC(=O)c2nc(C#N)c[nH]2)CC1` [Example 56, 4-Cyano-1H-imidazole-2-carboxylic acid [6-(4,4-dimethyl-cyclohex-1-enyl)-1′-(2-methanesulfonyl-ethyl)-1′,2′,3′,4′,5′,6′-hexhydro-[2,4′]bipyridinyl-5-yl]-amide trifluoroacetic acid salt]: under setting [1], the half-inhibitory concentration (IC50) was found to be 1 nM.

For the compound `CS(=O)(=O)CCN1CCC(c2ccc(NC(=O)c3nc(C#N)c[nH]3)c(C3=CCCCC3)n2)CC1` [Example 58, 5-Cyano-1H-imidazole-2-carboxylic acid [6-cyclohex-1-enyl-1′-(2-methanesulfonyl-ethyl)-1′,2′,3′,4′,5′,6′-hexahydro-[2,4′]bipyridinyl-5-yl]-amide], the IC50 under setting [1] worked out at 7 nM.

Source of the values: US7645755B2, “Inhibitors of c-fms kinase” (Janssen Pharmaceutical N.V., priority 2004, dated 2010).
